Laboratory results reported in the NIST ThermoML archive (doi:10.1016/j.jct.2007.07.005).

Test: xn = mol fraction of the nth substance listed
Details: Fluid (supercritical or subcritical phases), vibrating tube

CCCCCO [pentan-1-ol] + O=C=O
Details	mass density [kg/m3]
352.79 K, 11040 kPa, x2 = 0.4651	785.81
352.79 K, 12030 kPa, x2 = 0.4651	787.74
352.79 K, 13014 kPa, x2 = 0.4651	789.67
352.79 K, 13996 kPa, x2 = 0.4651	791.51
352.79 K, 15009 kPa, x2 = 0.4651	793.37
352.79 K, 16021 kPa, x2 = 0.4651	795.22
352.79 K, 17023 kPa, x2 = 0.4651	797.01
352.79 K, 18036 kPa, x2 = 0.4651	798.78
352.79 K, 19033 kPa, x2 = 0.4651	800.49
352.79 K, 20034 kPa, x2 = 0.4651	802.15
352.79 K, 21019 kPa, x2 = 0.4651	803.78
352.79 K, 22005 kPa, x2 = 0.4651	805.38
352.79 K, 23048 kPa, x2 = 0.4651	807.02
352.79 K, 24005 kPa, x2 = 0.4651	808.54
352.8 K, 9062 kPa, x2 = 0.3624	787.17
352.8 K, 10017 kPa, x2 = 0.3624	788.44
352.8 K, 10962 kPa, x2 = 0.3624	789.67
352.8 K, 12014 kPa, x2 = 0.3624	790.98
352.8 K, 13057 kPa, x2 = 0.3624	792.31
352.8 K, 13992 kPa, x2 = 0.3624	793.46
352.8 K, 14992 kPa, x2 = 0.3624	794.66
352.8 K, 16050 kPa, x2 = 0.3624	795.91
352.8 K, 16062 kPa, x2 = 0.8573	704.48
352.8 K, 17018 kPa, x2 = 0.3624	797.04
352.8 K, 17045 kPa, x2 = 0.8573	717.71
352.8 K, 17979 kPa, x2 = 0.3624	798.17
352.8 K, 18036 kPa, x2 = 0.8573	728.91
352.8 K, 19024 kPa, x2 = 0.8573	738.63
352.8 K, 19050 kPa, x2 = 0.3624	799.37
352.8 K, 20029 kPa, x2 = 0.3624	800.46
352.8 K, 20047 kPa, x2 = 0.8573	747.71
352.8 K, 21012 kPa, x2 = 0.8573	755.39
352.8 K, 21035 kPa, x2 = 0.3624	801.59
352.8 K, 21985 kPa, x2 = 0.3624	802.63
352.8 K, 22013 kPa, x2 = 0.8573	762.78
352.8 K, 23021 kPa, x2 = 0.3624	803.75
352.8 K, 23034 kPa, x2 = 0.8573	769.78
352.8 K, 24022 kPa, x2 = 0.3624	804.82
352.8 K, 24038 kPa, x2 = 0.8573	776.16
352.8 K, 25026 kPa, x2 = 0.3624	805.9
352.8 K, 25052 kPa, x2 = 0.8573	782.21
352.81 K, 3095 kPa, x2 = 0.0816	772.79
352.81 K, 4022 kPa, x2 = 0.0816	773.74
352.81 K, 5003 kPa, x2 = 0.0816	774.75
352.81 K, 5979 kPa, x2 = 0.0816	775.73
352.81 K, 7007 kPa, x2 = 0.0816	776.72
352.81 K, 7981 kPa, x2 = 0.0816	777.7
352.81 K, 9053 kPa, x2 = 0.0816	778.72
352.81 K, 10025 kPa, x2 = 0.0816	779.66
352.81 K, 11031 kPa, x2 = 0.0816	780.6
352.81 K, 11999 kPa, x2 = 0.0816	781.51
352.81 K, 13023 kPa, x2 = 0.0816	782.45
352.81 K, 14012 kPa, x2 = 0.0816	783.34
352.81 K, 15005 kPa, x2 = 0.7274	763.67
352.81 K, 15006 kPa, x2 = 0.0816	784.24
352.81 K, 15032 kPa, x2 = 0.9216	609.93
352.81 K, 15993 kPa, x2 = 0.0816	785.1
352.81 K, 16001 kPa, x2 = 0.9216	637.91
352.81 K, 16021 kPa, x2 = 0.7274	769.33
352.81 K, 17044 kPa, x2 = 0.9216	660.91
352.81 K, 17045 kPa, x2 = 0.7274	774.53
352.81 K, 17064 kPa, x2 = 0.0816	786
